{
  "source": "ChEMBL document CHEMBL1201862",
  "about": "“PubChem BioAssay data set” (2004)",
  "experiment_in_all_cases": "NCI-60 cell line screen, 48 h",
  "key": {"HOP-18": {"test_system": "HOP-18"}, "SK-MEL-2": {"test_system": "SK-MEL-2"}, "LOX IMVI": {"test_system": "LOX IMVI"}, "XF498": {"test_system": "XF498"}, "HOP-92": {"test_system": "HOP-92"}, "A549": {"test_system": "A549"}, "SNB-19": {"test_system": "SNB-19"}, "M19-MEL": {"test_system": "M19-MEL"}, "Malme-3M": {"test_system": "Malme-3M"}, "NCI-H460": {"test_system": "NCI-H460"}, "SK-MEL-5": {"test_system": "SK-MEL-5"}, "OVCAR-3": {"test_system": "OVCAR-3"}, "COLO 205": {"test_system": "COLO 205"}, "SW-620": {"test_system": "SW-620"}, "CCRF-CEM": {"test_system": "CCRF-CEM"}, "SF-539": {"test_system": "SF-539"}, "K562": {"test_system": "K562"}, "SF-295": {"test_system": "SF-295"}, "RXF 631": {"test_system": "RXF 631"}, "OVCAR-8": {"test_system": "OVCAR-8"}, "NCI-H23": {"test_system": "NCI-H23"}, "KM12": {"test_system": "KM12"}, "OVCAR-5": {"test_system": "OVCAR-5"}, "786-0": {"test_system": "786-0"}, "SN12C": {"test_system": "SN12C"}, "KM-20L2": {"test_system": "KM-20L2"}, "LXFL 529": {"test_system": "LXFL 529"}, "EKVX": {"test_system": "EKVX"}, "HCT-15": {"test_system": "HCT-15"}, "ACHN": {"test_system": "ACHN"}, "MOLT-4": {"test_system": "MOLT-4"}, "DLD-1": {"test_system": "DLD-1"}, "HL-60": {"test_system": "HL-60"}, "HCC 2998": {"test_system": "HCC 2998"}, "SR": {"test_system": "SR"}, "DMS-114": {"test_system": "DMS-114"}, "RPMI-8226": {"test_system": "RPMI-8226"}, "SK-MEL-28": {"test_system": "SK-MEL-28"}, "HCT-116": {"test_system": "HCT-116"}, "IGROV-1": {"test_system": "IGROV-1"}, "HOP-62": {"test_system": "HOP-62"}, "OVCAR-4": {"test_system": "OVCAR-4"}, "M14": {"test_system": "M14"}, "UO-31": {"test_system": "UO-31"}, "NCI-H226": {"test_system": "NCI-H226"}, "SNB-78": {"test_system": "SNB-78"}, "U-251": {"test_system": "U-251"}, "NCI-H522": {"test_system": "NCI-H522"}, "DMS-273": {"test_system": "DMS-273"}, "SF-268": {"test_system": "SF-268"}, "UACC-62": {"test_system": "UACC-62"}, "HT-29": {"test_system": "HT-29"}, "CAKI-1": {"test_system": "CAKI-1"}, "SK-OV-3": {"test_system": "SK-OV-3"}, "SNB-75": {"test_system": "SNB-75"}},
  "note": "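Values below derive from 48-hour exposures of cells grown in 96-well plates, with endpoints linearly interpolated between the two concentrations bracketing the appropriate inhibition level. GI50 is the concentration that inhibits growth by half.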 Activity calls are given as the source filed them. Cut-off read from the data, not from the text of the source: active = GI50 up to about 1.1 µM and inactive = higher.",
  "data": [
    {"smiles": "CNC(=S)NC1CCCCC1NC(=S)NC", "note": "(stereo not given)", "values": [
      {"measurement": "GI50", "setting": "HOP-18", "value": "> 100 µM (inactive)"},
      {"measurement": "GI50", "setting": "SK-MEL-2", "value": "> 100 µM (inactive)"},
      {"measurement": "GI50", "setting": "LOX IMVI", "value": "> 100 µM (inactive)"},
      {"measurement": "GI50", "setting": "XF498", "value": "> 100 µM (inactive)"},
      {"measurement": "GI50", "setting": "HOP-92", "value": "> 100 µM (inactive)"},
      {"measurement": "GI50", "setting": "A549", "value": "> 100 µM (inactive)"},
      {"measurement": "GI50", "setting": "SNB-19", "value": "> 100 µM (inactive)"},
      {"measurement": "GI50", "setting": "M19-MEL", "value": "> 100 µM (inactive)"},
      {"measurement": "GI50", "setting": "Malme-3M", "value": "> 100 µM (inactive)"},
      {"measurement": "GI50", "setting": "NCI-H460", "value": "> 100 µM (inactive)"},
      {"measurement": "GI50", "setting": "SK-MEL-5", "value": "> 100 µM (inactive)"},
      {"measurement": "GI50", "setting": "OVCAR-3", "value": "> 100 µM (inactive)"},
      {"measurement": "GI50", "setting": "COLO 205", "value": "> 100 µM (inactive)"},
      {"measurement": "GI50", "setting": "SW-620", "value": "> 100 µM (inactive)"},
      {"measurement": "GI50", "setting": "CCRF-CEM", "value": "> 100 µM (inactive)"},
      {"measurement": "GI50", "setting": "SF-539", "value": "> 100 µM (inactive)"},
      {"measurement": "GI50", "setting": "K562", "value": "> 100 µM (inactive)"},
      {"measurement": "GI50", "setting": "SF-295", "value": "> 100 µM (inactive)"},
      {"measurement": "GI50", "setting": "RXF 631", "value": "> 100 µM (inactive)"},
      {"measurement": "GI50", "setting": "OVCAR-8", "value": "> 100 µM (inactive)"},
      {"measurement": "GI50", "setting": "NCI-H23", "value": "> 100 µM (inactive)"},
      {"measurement": "GI50", "setting": "KM12", "value": "> 100 µM (inactive)"},
      {"measurement": "GI50", "setting": "OVCAR-5", "value": "> 100 µM (inactive)"},
      {"measurement": "GI50", "setting": "786-0", "value": "> 100 µM (inactive)"},
      {"measurement": "GI50", "setting": "SN12C", "value": "> 100 µM (inactive)"},
      {"measurement": "GI50", "setting": "KM-20L2", "value": "> 100 µM (inactive)"},
      {"measurement": "GI50", "setting": "LXFL 529", "value": "> 100 µM (inactive)"},
      {"measurement": "GI50", "setting": "EKVX", "value": "> 100 µM (inactive)"},
      {"measurement": "GI50", "setting": "HCT-15", "value": "> 100", "unit": "µM"},
      {"measurement": "GI50", "setting": "ACHN", "value": "> 100 µM (inactive)"},
      {"measurement": "GI50", "setting": "MOLT-4", "value": "> 100 µM (inactive)"},
      {"measurement": "GI50", "setting": "DLD-1", "value": "> 100 µM (inactive)"},
      {"measurement": "GI50", "setting": "HL-60", "value": "> 100 µM (inactive)"},
      {"measurement": "GI50", "setting": "HCC 2998", "value": "> 100 µM (inactive)"},
      {"measurement": "GI50", "setting": "SR", "value": "> 100 µM (inactive)"},
      {"measurement": "GI50", "setting": "DMS-114", "value": "> 100 µM (inactive)"},
      {"measurement": "GI50", "setting": "RPMI-8226", "value": "> 100 µM (inactive)"},
      {"measurement": "GI50", "setting": "SK-MEL-28", "value": "> 100 µM (inactive)"},
      {"measurement": "GI50", "setting": "HCT-116", "value": "> 100 µM (inactive)"},
      {"measurement": "GI50", "setting": "IGROV-1", "value": "> 100 µM (inactive)"},
      {"measurement": "GI50", "setting": "HOP-62", "value": "> 100 µM (inactive)"},
      {"measurement": "GI50", "setting": "OVCAR-4", "value": "> 100 µM (inactive)"},
      {"measurement": "GI50", "setting": "M14", "value": "> 100 µM (inactive)"},
      {"measurement": "GI50", "setting": "UO-31", "value": "> 100 µM (inactive)"},
      {"measurement": "GI50", "setting": "NCI-H226", "value": "> 100 µM (inactive)"},
      {"measurement": "GI50", "setting": "SNB-78", "value": "> 100 µM (inactive)"},
      {"measurement": "GI50", "setting": "U-251", "value": "> 100 µM (inactive)"},
      {"measurement": "GI50", "setting": "NCI-H522", "value": "> 100 µM (inactive)"},
      {"measurement": "GI50", "setting": "DMS-273", "value": "> 100 µM (inactive)"},
      {"measurement": "GI50", "setting": "SF-268", "value": "> 100 µM (inactive)"},
      {"measurement": "GI50", "setting": "UACC-62", "value": "> 100 µM (inactive)"},
      {"measurement": "GI50", "setting": "HT-29", "value": "> 100 µM (inactive)"},
      {"measurement": "GI50", "setting": "CAKI-1", "value": "> 100 µM (inactive)"},
      {"measurement": "GI50", "setting": "SK-OV-3", "value": "> 100 µM (inactive)"},
      {"measurement": "GI50", "setting": "SNB-75", "value": "> 100 µM (inactive)"}
    ]}
  ]
}
